Measurements: patent publication US5137811A, “Method for diagnosing periodontal diseases with a substrate specific for aminopeptidase activity of periodontopathic bacteria” (Sunstar Kabushiki Kaisha, priority 1986, dated 1992)
Where a SMILES comes first, the peptide text is derived from it. The star is where a group is joined. βNA = c1ccc2cc(N*)ccc2c1; Cbz = O=C(OCc1ccccc1)*; Bz = O=C(c1ccccc1)*

What was measured:
[1] = tested on: Treponema denticola; test: Hydrolytic activity of oral anaerobe cell suspension on aminopeptidase substrates (Experiment 1); assay type: cell-based; details: four strains, substrate 0.2 mM, pH 7.0, 37° C., 60 minutes, Table 1
Experimental: (§1) Oral anaerobes, i.e., four strains of Treponema denticola, five strains of B. gingivalis, four strains of Actinobacillus actinomycetemcomitans, four strains of Capnocytophaga sp. and three strains of Fusobacterium nucleatum were tested for hydrolytic activity to the substrate of aminopeptidase enzyme as follows.
(§2) The strains of Treponema were anaerobically cultivated using TYGVS media at 37° C. for 7 days, while other bacterial strains were cultivated using brain heart infusion broth at 37° C. for 48 to 72 hours. Each culture was diluted to obtain a bacterial cell suspension, the absorption at 660 nm of which was 1.0.
(§3) Substrate compounds for aminopeptidase enzyme having various color developing groups derived from β-naphthylamine were dissolved in 0.1M Tris-HCl buffer (pH 7.0) at the concentration of 0.2 mM to obtain substrate solutions.
(§4) To the substrate solution (1.5 ml) was added the above cell suspension (0.3 ml) and reacted at 37° C. for 60 minutes. After completion of the reaction, a coloring reagent [prepared by dissolving diazonium salt of Garnet GBC in 1M acetate buffer (containing 10% Tween 20, pH: 4.2) at the concentration of 0.5 mg/ml] was added and, after 15 minutes, the absorption at 525 nm was determined with a spectrophotometer.
(§5) On the basis of the average amount of released β-naphthylamine in each strain, the hydrolytic activity was expressed as follows: […]

[2] = tested on: Bacteroides gingivalis; test: as above; assay type: cell-based; details: five strains, substrate 0.2 mM, pH 7.0, 37° C., 60 minutes, Table 1
Experimental: as §1, §2, §3, §4, §5

[3] = tested on: Actinobacillus actinomycetemcomitans; test: as above; assay type: cell-based; details: four strains, substrate 0.2 mM, pH 7.0, 37° C., 60 minutes, Table 1
Experimental: as §1, §2, §3, §4, §5

[4] = tested on: Capnocytophaga sp.; test: as above; assay type: cell-based; details: four strains, substrate 0.2 mM, pH 7.0, 37° C., 60 minutes, Table 1
Experimental: as §1, §2, §3, §4, §5

[5] = tested on: Fusobacterium nucleatum; test: as above; assay type: cell-based; details: three strains, substrate 0.2 mM, pH 7.0, 37° C., 60 minutes, Table 1
Experimental: as §1, §2, §3, §4, §5

[6] = tested on: periodontopathic bacteria specific aminopeptidase activity; test: Hydrolytic activity of gingival crevicular fluid specimens, visually evaluated (Experiment 4); assay type: biochemical; set-up: key: -: orange; +: dark orange; ++: brown; +++: dark brown
Experimental: as §3, §4
Specimens of gingival crevicular fluid were collected with paper points from five subjects who were considered to be healthy from their clinical state, six subjects with gingivitis and six subjects with periodontitis. Each specimen was dispersed in Ringer's solution (1.5 ml), and the relative amount of spirochete to total bacteria: [formula] was determined with a phase contrast microscope. Further, the Ringer's solution (0.3 ml) was tested for hydrolytic activity using the substrate solution prepared in the same manner as described in Experiment 1. As substrates, there were used compounds of the formula [1], i.e., N-benzoylvalyl-glycyl-arginine-β-naphthylamide (BzVGR) and N-carbobenzoxy-valyl-glycyl-arginine-β-naphthylamide (CxVGR) were used.
In table 4, hydrolytic activity was visually evaluated and expressed as follows: […]

| SMILES | hydrolytic activity (average amount of released β-naphthylamine) [1] | hydrolytic activity (average amount of released β-naphthylamine) [2] | hydrolytic activity (average amount of released β-naphthylamine) [3] | hydrolytic activity (average amount of released β-naphthylamine) [4] | hydrolytic activity (average amount of released β-naphthylamine) [5] | further results |
| --- | --- | --- | --- | --- | --- | --- |
| N=C(N)NCCC[C@H](N)C(=O)NCC(=O)Nc1ccc2ccccc2c1 [RG, arginyl-glycine-β-naphthylamide, reference compound] (H-Arg-Gly-βNA) | - (release amount<5 nmol/ml) | ++ (20 ≤release amount<40 nmol/ml) | - (release amount<5 nmol/ml) | + (10 ≤release amount<20 nmol/ml) | - (release amount<5 nmol/ml) |  |
| CC(C)[C@H](NC(=O)c1ccccc1)C(=O)NCC(=O)N[C@@H](CCCNC(=N)N)C(=O)Nc1ccc2ccccc2c1 [BzVGR, N-benzoyl-valyl-glycyl-arginine-β-naphthylamide] (Bz-Val-Gly-Arg-βNA) | +++ (release amount≥40 nmol/ml) | +++ (release amount≥40 nmol/ml) | - (release amount<5 nmol/ml) | - (release amount<5 nmol/ml) | - (release amount<5 nmol/ml) | hydrolytic activity, visually evaluated ([6]; Gingivitis subject 1 (spirochete 7.3 %)): +; hydrolytic activity, visually evaluated ([6]; Gingivitis subject 2 (spirochete 16.7 %)): +; hydrolytic activity, visually evaluated ([6]; Gingivitis subject 3 (spirochete 20.5 %)): ++; hydrolytic activity, visually evaluated ([6]; Gingivitis subject 4 (spirochete 6.8 %)): -; hydrolytic activity, visually evaluated ([6]; Gingivitis subject 5 (spirochete 7.3 %)): -; hydrolytic activity, visually evaluated ([6]; Gingivitis subject 6 (spirochete 14.4 %)): +; hydrolytic activity, visually evaluated ([6]; Healthy subject 1 (spirochete 0.1 %)): -; hydrolytic activity, visually evaluated ([6]; Healthy subject 2 (spirochete 2.5 %)): +; hydrolytic activity, visually evaluated ([6]; Healthy subject 3 (spirochete 1.1 %)): -; hydrolytic activity, visually evaluated ([6]; Healthy subject 4 (spirochete 0.6 %)): -; hydrolytic activity, visually evaluated ([6]; Healthy subject 5 (spirochete 1.3 %)): -; hydrolytic activity, visually evaluated ([6]; Periodontitis subject 1 (spirochete 45.2 %)): +++; hydrolytic activity, visually evaluated ([6]; Periodontitis subject 2 (spirochete 30.3 %)): +++; hydrolytic activity, visually evaluated ([6]; Periodontitis subject 3 (spirochete 34.6 %)): +++; hydrolytic activity, visually evaluated ([6]; Periodontitis subject 4 (spirochete 21.2 %)): +++; hydrolytic activity, visually evaluated ([6]; Periodontitis subject 5 (spirochete 40.3 %)): +++; hydrolytic activity, visually evaluated ([6]; Periodontitis subject 6 (spirochete 35.1 %)): +++ |
| N=C(N)NCCC[C@H](NC(=O)OCc1ccccc1)C(=O)N[C@@H](CCCNC(=N)N)C(=O)Nc1ccc2ccccc2c1 [CxRR, N-carbobenzoxy-arginyl-arginine-β-naphthylamide] (Cbz-Arg-Arg-βNA) | + + | +++ (release amount≥40 nmol/ml) | - (release amount<5 nmol/ml) | - (release amount<5 nmol/ml) | - (release amount<5 nmol/ml) |  |
| NCCCC[C@H](NC(=O)CN)C(=O)Nc1ccc2ccccc2c1 [GK, glycyl-lysine-β-naphthylamide, reference compound] (H-Gly-Lys-βNA) | - (release amount<5 nmol/ml) | + (10 ≤release amount<20 nmol/ml) | - (release amount<5 nmol/ml) | + (10 ≤release amount<20 nmol/ml) | - (release amount<5 nmol/ml) |  |
| N=C(N)NCCC[C@H](NC(=O)[C@H](Cc1ccccc1)NC(=O)[C@@H]1CCCN1)C(=O)Nc1ccc2ccccc2c1 [PFR, prolyl-phenylalanyl-arginine-β-naphthylamide] (H-Pro-Phe-Arg-βNA) | +++ (release amount≥40 nmol/ml) | +++ (release amount≥40 nmol/ml) | - (release amount<5 nmol/ml) | - (release amount<5 nmol/ml) | - (release amount<5 nmol/ml) |  |
| N=C(N)NCCC[C@H](NC(=O)[C@@H](N)Cc1ccccc1)C(=O)Nc1ccc2ccccc2c1 [FR, phenylalanyl-arginine-β-naphthylamide] (H-Phe-Arg-βNA) | + (10 ≤release amount<20 nmol/ml) | + (10 ≤release amount<20 nmol/ml) | - (release amount<5 nmol/ml) | ± (5 ≤release amount<10 nmol/ml) | - (release amount<5 nmol/ml) |  |
| NCC(=O)N[C@@H](Cc1ccccc1)C(=O)Nc1ccc2ccccc2c1 [GF, glycyl-phenylalanine-β-naphthylamide, reference compound] (H-Gly-Phe-βNA) | - (release amount<5 nmol/ml) | ++ (20 ≤release amount<40 nmol/ml) | - (release amount<5 nmol/ml) | ± (5 ≤release amount<10 nmol/ml) | - (release amount<5 nmol/ml) |  |
| N=C(N)NCCC[C@H](NC(=O)[C@@H](N)CCCNC(=N)N)C(=O)Nc1ccc2ccccc2c1 [RR, arginyl-arginine-β-naphthylamide] (H-Arg-Arg-βNA) | +++ (release amount≥40 nmol/ml) | + (10 ≤release amount<20 nmol/ml) | - (release amount<5 nmol/ml) | + (10 ≤release amount<20 nmol/ml) | - (release amount<5 nmol/ml) |  |
| N=C(N)NCCC[C@H](NC(=O)[C@H](CCCCN)NC(=O)OCc1ccccc1)C(=O)Nc1ccc2ccccc2c1 [CxKR, N-carbobenzoxy-lysyl-arginine-β-naphthylamide] (Cbz-Lys-Arg-βNA) | ++ (20 ≤release amount<40 nmol/ml) | ++ (20 ≤release amount<40 nmol/ml) | - (release amount<5 nmol/ml) | - (release amount<5 nmol/ml) | - (release amount<5 nmol/ml) |  |
| N=C(N)NCCC[C@H](NC(=O)[C@@H](N)CCCCN)C(=O)Nc1ccc2ccccc2c1 [KR, lysyl-arginine-β-naphthylamide] (H-Lys-Arg-βNA) | + (10 ≤release amount<20 nmol/ml) | ++ (20 ≤release amount<40 nmol/ml) | - (release amount<5 nmol/ml) | + (10 ≤release amount<20 nmol/ml) | - (release amount<5 nmol/ml) |  |
| N=C(N)NCCC[C@H](NC(=O)[C@H](Cc1ccccc1)NC(=O)OCc1ccccc1)C(=O)Nc1ccc2ccccc2c1 [CxFR, N-carbobenzoxy-phenylalanyl-arginine-β-naphthylamide] (Cbz-Phe-Arg-βNA) | +++ (release amount≥40 nmol/ml) | +++ (release amount≥40 nmol/ml) | - (release amount<5 nmol/ml) | - (release amount<5 nmol/ml) | - (release amount<5 nmol/ml) |  |
